US20240109843A1, “BENZALDEHYDE COMPOUNDS WITH DIRECT POLYMER DESTABILIZING EFFECTS TO TREAT SICKLE CELL DISEASE” (VIRGINIA COMMONWEALTH UNIVERSITY, priority 2018, published 2024)

Assays:
[1] = system: RBCs from donors with homozygous SCD; experiment: Oxygen-independent sickle inhibition in SS blood suspensions under anoxia (100% nitrogen); format: cell-based, human; details: anoxia
Method: To establish oxygen-independent sickle inhibition, the incubation chamber was subsequently opened and exposed to room air for 15 minutes to ensure complete re-oxygenation and reversal of the sickled cells to normal round cells. Reversal was confirmed by microscopy. The incubation chamber was then closed, and the assay was repeated with incubation in 100% nitrogen gas for 1 hour (for screening), or up to 2.5 h (for time-course studies), with collection and fixation of blood aliquots at defined intervals. Aliquot samples were again subjected to microscopic morphological analysis of bright field images to identify the proportion of sickled and non-sickled cells, and sickle inhibition calculated.

Hb [2] = target: T1, Hb (Homo sapiens, UniProt P69905); experiment: Hb modification (drug-adduct formation) in SS blood suspensions by cation-exchange HPLC; format: binding; set-up: Blood suspensions from subjects with homozygous SCD; from tissue; host or cells: blood suspensions (20% hematocrit) from donors with homozygous SCD; lysates of the treated red cells; details: 2 mM, 4 biological replicates
Method: All compounds (Comp 1-13) and comparator molecules (VZHE-039, PP-14, INN-310, and Voxelotor) were evaluated following established procedures. Blood samples from individual donors with homozygous SCD (obtained with informed consent) were diluted using Hemox buffer solution with the addition of glucose (10 mM) and BSA (0.2%) to adjust hematocrit of the blood suspensions to 20%, which standardizes the procedure to normalize the ratio of RBCs to drug, for assay consistency and reproducibility. Briefly, blood suspensions were incubated under room air in the presence of various concentrations of test compounds (0-2 mM) at 37° C. for 1 hour in 96-well round bottom plates. Subsequently, the suspensions were incubated with a hypoxic gas mixture (2.5% Oxygen gas/balance Nitrogen gas) at 37° C. for up to 2 hours prior to fixation with 2% glutaraldehyde solution without exposure to air. The fixated blood aliquots were evaluated by microscopic morphological analysis (image analysis on Image J software) to identify the proportion of sickled and non-sickled RBCs, and sickle inhibition calculated based on the % change from negative control (DMSO).
The residual samples were then washed in phosphate-buffered saline, and hemolyzed in hypotonic lysis buffer, with or without sodium borohydride (50 mM). Aliquots obtained from the lysates with or without sodium borohydride (to reduce Schiff base adducts) were also assessed for level of Hb modification (drug-adduct formation) by cation-exchange HPLC (Hitachi D-7000 Series, Hitachi Instruments, Inc., San Jose, CA) with a weak cation-exchange column (Poly CAT A: 50 mm×4.6 mm, Poly LC, Inc., Columbia, MD). Hemoglobin isotype peaks are eluted with a linear gradient of phase B from 0% to 80% at A410 nm (Mobile Phase A: 40 mM Bis-Tris, 2 mM KCN, pH 6.9; Phase B: 40 mM Bis-Tris, 2 mM KCN, 0.2 M sodium chloride, pH 6.55). Clarified lysate from normal human adult […] (Hb A), as well as commercial standards containing approximately equal amounts of Hb F, A, S and C (Helena Laboratories, Beaumont, TX), were utilized as reference isotypes. Reduced samples were used to assess “fixed adduct” formation (dependent on RBC membrane permeability), whereas non-reduced samples assessed drug-adduct formation independent of drug permeability.
Target sequence in this assay (P69905 2-142): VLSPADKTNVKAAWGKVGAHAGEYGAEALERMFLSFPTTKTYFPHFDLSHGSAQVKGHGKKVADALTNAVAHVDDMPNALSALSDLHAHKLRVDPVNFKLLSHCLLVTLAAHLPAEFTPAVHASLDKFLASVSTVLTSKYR
Target sequence in this assay (P68871 with tags, fused parts or gaps E7V partner): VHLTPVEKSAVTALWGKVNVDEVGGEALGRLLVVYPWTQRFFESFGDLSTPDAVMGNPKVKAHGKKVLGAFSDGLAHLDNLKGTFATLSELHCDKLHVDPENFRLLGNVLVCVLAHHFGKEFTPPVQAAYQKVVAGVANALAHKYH

Hb [3] = target: T1, Hb; experiment: Drug partitioning studies, fixed and unfixed Hb adducts in non-sickling AA blood; format: cell-based; set-up: Hemoglobin modification, studies using non-sickling AA blood; from tissue; host or cells: non-sickling (AA) human blood, red blood cells; details: 2 mM; for Fixed Adducts (%) / Unfixed Adduct (%): 6 biological replicates; for Partitioning Ratio (%): fixed relative to unfixed adducts
Method: RBC partitioning studies were conducted both for SS RBCs following sickling studies above, or as separate independent studies with non-sickle blood. Briefly, aliquots of blood samples, which had been incubated with test molecules, were lysed either in deionized water (un-fixed), or in water containing 50 mM sodium borohydride (fixed). Samples were subjected to cation exchange HPLC analyses, as described above. Modified […] (Hb adducts) was determined as a proportion of total Hb in each sample, and partitioning ratio was determined as the relative fraction of Hb modification of fixed samples compared to corresponding non-fixed samples. The partitioning ratio is the relative fraction of Hb that was modified intracellularly by molecules that permeated the RBC membrane, as compared to unfixed adducts which reflect Hb binding without RBC membrane permeation.
Target sequence in this assay (P69905 2-142 limits assumed): as the sequence (P69905 2-142) above
Target sequence in this assay (P68871 2-147 partner limits assumed): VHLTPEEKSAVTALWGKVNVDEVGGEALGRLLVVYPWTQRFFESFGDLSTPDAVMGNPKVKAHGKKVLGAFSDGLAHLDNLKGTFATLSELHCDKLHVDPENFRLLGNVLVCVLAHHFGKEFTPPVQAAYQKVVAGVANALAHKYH

sickle Hb = target: T2, sickle Hb (Homo sapiens, UniProt P69905); experiment: Oxygen equilibrium (P50 shift) of lysates from treated sickle blood; format: cell-based; details: 0.5, 1 and 2 mM, SS blood
T2 construct: Blood suspensions from subjects with homozygous SCD; from tissue; host or cells: blood suspensions (20% hematocrit) from donors with homozygous SCD; lysates of the treated red cells
Method: (§1) Blood suspensions from subjects with homozygous SCD (resuspended in Hemox™ buffer to a final hematocrit 20%) were incubated under air in the absence or presence of the compounds (0.5 mM, 1 mM and 2 mM) at 37° C. for 1 h to ensure that binding had attained equilibrium. The suspensions were then incubated under hypoxic conditions (2.5% oxygen/97.5% nitrogen) at 37° C. for 1 h. Aliquot samples were fixed with 2% glutaraldehyde solution without exposure to air, and then subjected to microscopic morphological analysis of bright field images (at 40× magnification) of single layer cells on an Olympus BX40 microscope fitted with an Infinity Lite B camera (Olympus), and the coupled Image Capture software. The residual samples were washed in phosphate-buffer saline, and hemolyzed in hypotonic lysis buffer for subsequent Hb-modification and oxygen equilibrium analyses.
For oxygen equilibrium studies, approximately 100 μL aliquot samples from the above clarified lysate were added to 4 mL of 0.1M potassium phosphate buffer, pH 7.0, in cuvettes and subjected to hemoximetry analysis using a Hemox™ Analyzer (TCS Scientific Corp.) to assess P50 shifts. Degree of P50 shift (ΔP50) was expressed as percentage fractions of control DMSO-treated samples.

intracellular Hb = target: T3, intracellular Hb (Mus musculus, UniProt P01942); experiment: In vivo modification of intracellular Hb in wild-type mice; set-up: species or system C57BL/6 mice; details: IP 150 mg/kg, 30% PEG300, 6 h
T3 construct: from tissue; host or cells: blood (red cell lysates) of dosed C57BL/6 mice
Method: We tested in vivo pharmacologic (pharmacodynamics) effects of select PP compounds in C57BL/6 mice. The animals were treated with a single intraperitoneal (IP) (150 mg/kg body weight) dose of PP6, PP10, PP14, and TD7, which were formulated with 30% PEG300. Blood samples were obtained prior to treatment (0) and 1, 3 and 6 h post-treatment, via submandibular bleeding, and subjected to hemolysis using standard methods. Clarified lysates, free of cell debris and red blood cell ghosts were analyzed by cation-exchange HPLC to determine the levels of drug-modified hemoglobin (adducts); and to conduct oxygen equilibrium studies to determine degrees of shift in p50 values using methodologies described earlier for in vitro studies on human samples. In a subsequent follow-up experiment, a new excipient obtained from Catalent Pharma Solutions was also used to formulate PP14 and used for a single intraperitoneal (IP) and oral (150 mg/kg body weight) dose. Blood samples were obtained prior to treatment (0) and 1, 3 or 5 h post-treatment, via submandibular bleeding, and used to determine the levels of drug-modified hemoglobin (adducts); and to conduct oxygen equilibrium studies to determine degrees of shift in p50 values as described above.

Hb [4] = target: T1, Hb; experiment: Oxygen equilibrium curve (OEC) studies with normal whole blood; format: cell-based; set-up: Hemoglobin modification, studies using non-sickling AA blood; from tissue; host or cells: non-sickling (AA) human blood, red blood cells; details: normal whole blood, 0.5, 1, 2 mM
Method: Oxygen equilibrium curve (OEC) studies to determine the effect of the compounds on Hb affinity for oxygen were conducted following standard procedure. Whole blood (30% hematocrit) was incubated in the absence or presence of compounds (0.5 mM, 1.0 mM and 2.0 mM) solubilized in DMSO. […] After equilibration, the sample was removed via syringe and aspirated into an ABL 700 series table top automated blood gas analyzer (Radiometer America, Inc., Westlake, OH) to determine total hemoglobin (tHb), hematocrit (Hct), pH, pCO2, partial pressure of oxygen (pO2), and the Hb-O2 saturation (sO2) values. The measured values of pO2 and sO2 at each oxygen saturation level were then subjected to nonlinear regression analysis using the software Scientist (Micromath, Salt Lake City UT) with the following equation: […]
Aromatic aldehydes are known to prevent hypoxia-induced Hb S polymerization by increasing the Hb affinity for oxygen. We therefore tested the PP compounds in a dose-dependent manner (0.5, 1, 2 mM) for their effect on Hb oxygen binding property. […] These findings confirmed that the potent in vitro activity previously seen in TD7 was at least conserved in the novel PP compounds.
Target sequence in this assay (P69905 2-142 limits assumed): as the sequence (P69905 2-142) above
Target sequence in this assay (P68871 2-147 partner limits assumed): as the sequence (P68871 2-147 partner limits assumed) above

sickle red blood cells = experiment: Antisickling study with human sickle blood under 2.5% oxygen; format: cell-based; details: sickle RBCs; for inhibition at 1000 µM: 1 mM
Method: as §1
The studies described above were conducted using normal whole blood. Next, we investigated whether the improvement in Hb oxygen affinity and the compounds sustained activity also translated to similar effects in SS blood from SCD patients. […] At 1 mM, PP8 and PP9 inhibited nearly 100% of sickling, while PP2, PP6, PP14 inhibited sickling by more than 70%. […] It is clear that the modifications of the present compounds has led to significant improvement in antisickling activity.

[5] = Homo sapiens, Erythrocyte, 2.5% oxygen, read-out: sickling inhibition

T2 sequence (P69905 2-142 limits assumed): as the sequence (P69905 2-142) above
T3 sequence (P01942 2-142 limits assumed): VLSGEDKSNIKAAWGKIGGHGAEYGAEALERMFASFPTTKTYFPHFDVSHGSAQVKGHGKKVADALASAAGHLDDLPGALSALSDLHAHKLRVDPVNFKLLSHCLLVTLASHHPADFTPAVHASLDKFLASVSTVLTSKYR
T3 sequence (P02088 2-147 partner limits assumed): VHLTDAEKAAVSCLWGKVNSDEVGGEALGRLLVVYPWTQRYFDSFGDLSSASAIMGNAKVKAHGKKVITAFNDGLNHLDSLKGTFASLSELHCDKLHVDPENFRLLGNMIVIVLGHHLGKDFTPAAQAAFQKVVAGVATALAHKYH

SMILES | Hb Modification (%) (Hb [2]) | Fixed Adducts (%) (Hb [3]) | Unfixed Adduct (%) (Hb [3]) | Partitioning Ratio (%) (Hb [3]) | effect on Hb oxygen binding property (OEC) (Hb [4]) | polymer destabilizing effect / sickle inhibition in anoxia (in words) [1] | also measured
O=Cc1c(F)cc(F)cc1OCc1ccccn1 [Comp 9, 2,4-difluoro-6-(pyridin-2-ylmethoxy)benzaldehyde] | 69.1 ± 11.8 | 72.7 ± 4.1 | 69.4 ± 7.5 | 105.2 ± 5.9 | – | completely negates the polymer destabilization effects | –
COC(=O)c1cccc(COc2ccc(OC)cc2C=O)n1 [PP3, Methyl 6-((2-formyl-4-methoxyphenoxy)methyl)picolinate] | – | – | – | – | – | – | increase of Hb affinity for oxygen in sickle blood (in words) (sickle Hb): only marginally increasing Hb affinity for oxygen
COC(=O)c1cccc(COc2cccc(O)c2C=O)n1 [PP10, Methyl 6-((2-formyl-3-hydroxyphenoxy)methyl)picolinate] | – | – | – | – | – | – | modified Hb (intracellular Hb): 9.6±1.9%
O=Cc1c(OCc2cccnc2)ccc(F)c1O [Comp 12, 3-fluoro-2-hydroxy-6-(pyridin-3-ylmethoxy)benzaldehyde] | 99.8 ± 0.4 | 80.4 ± 9.1 | 80.8 ± 5.9 | 99.4 ± 4.2 | – | significantly reduced the potency of polymer inhibition | –
O=Cc1c(F)cc(F)cc1OCc1ncccc1F [Comp 13, 2,4-difluoro-6-((3-fluoropyridin-2-yl)methoxy)benzaldehyde] | 79.1 ± 10.3 | 80.7 ± 4.8 | 78.4 ± 6.1 | 103.0 ± 2.9 | – | completely negates the polymer destabilization effects | –
COC(=O)c1ncccc1COc1ccc(OC)cc1C=O [PP8, Methyl 3-((2-formyl-4-methoxyphenoxy)methyl)picolinate] | – | – | – | – | – | – | inhibition at 500 µM (sickle red blood cells; Homo sapiens, Erythrocyte, 0.5 mM, 2.5% oxygen, read-out: sickling inhibition): > 35%; inhibition at 1000 µM (sickle red blood cells; [5]): ~100%; increase of Hb affinity for oxygen in sickle blood (in words) (sickle Hb): only marginally increasing Hb affinity for oxygen
COc1cc(C=O)ccc1O [vanillin, reference compound] | – | – | – | – | very weak functional effect | – | sickling inhibition (in words) (sickle red blood cells; 0.5, 1 and 2 mM): minimal sickling inhibition

Now from value to compound, other results behind:

Hb Modification (%) (Hb [2]) | Fixed Adducts (%) (Hb [3]) | Unfixed Adduct (%) (Hb [3]) | Partitioning Ratio (%) (Hb [3]) | effect on Hb oxygen binding property (OEC) (Hb [4]) | SMILES | polymer destabilizing effect / sickle inhibition in anoxia (in words) [1] | also measured
– | – | – | – | most significant activities | COC(=O)c1cncc(COc2ccc(OC)cc2C=O)c1 [PP12, Methyl 5-((2-formyl-4-methoxyphenoxy)methyl)nicotinate] | – | –
– | – | – | – | most significant activities | COC(=O)c1ccnc(COc2cccc(O)c2C=O)c1 [PP7, Methyl 2-((2-formyl-3-hydroxyphenoxy)methyl)isonicotinate] | – | –
– | – | – | – | minimal effect | COC(=O)c1ccnc(COc2ccc(OC)cc2C=O)c1 [PP4] | – | –
– | – | – | – | minimal effect | COC(=O)c1ccc(COc2ccc(OC)cc2C=O)nc1 [PP1, Methyl 6-((2-formyl-4-methoxyphenoxy)methyl)nicotinate] | – | –
– | – | – | – | most significant activities | COC(=O)c1ccc(COc2ccc(OC)cc2C=O)nc1 [PP9] | – | inhibition at 1000 µM (sickle red blood cells; [5]): ~100%; increase of Hb affinity for oxygen in sickle blood (in words) (sickle Hb): only marginally increasing Hb affinity for oxygen
65.7 ± 6.0 | 82.0 ± 3.1 | 79.7 ± 4.3 | 103.0 ± 1.7 | – | COc1ccc(OCc2ccccn2)c(C=O)c1 [INN-310, reference compound] | only weak potency in anoxia | –
